Assay: cn = amount concentration of the nth substance listed, in mol/dm3
Conditions: 101 kPa, Liquid, Advanced Conductivity Orion 162A

C[N+](C)(C)C.O=C([O-])C(F)(F)C(F)(F)C(F)(F)C(F)(F)C(F)(F)C(F)(F)C(F)(F)F [tetramethylammonium perfluorooctanoate] + O
Conditions | electrical conductivity [S/m]
288.15 K, c1 = 0.001316 | 0.00725
288.15 K, c1 = 0.002597 | 0.0135
288.15 K, c1 = 0.003846 | 0.01958
288.15 K, c1 = 0.005063 | 0.0253
288.15 K, c1 = 0.00625 | 0.0306
288.15 K, c1 = 0.007407 | 0.0357
288.15 K, c1 = 0.008536 | 0.0405
288.15 K, c1 = 0.009638 | 0.0451
288.15 K, c1 = 0.01071 | 0.0494
288.15 K, c1 = 0.01176 | 0.0536
288.15 K, c1 = 0.01279 | 0.0574
288.15 K, c1 = 0.01379 | 0.0598
288.15 K, c1 = 0.01477 | 0.0611
288.15 K, c1 = 0.01573 | 0.0622
288.15 K, c1 = 0.01704 | 0.0637
288.15 K, c1 = 0.01848 | 0.0656
288.15 K, c1 = 0.02004 | 0.0675
288.15 K, c1 = 0.02171 | 0.0693
288.15 K, c1 = 0.02331 | 0.0714
288.15 K, c1 = 0.02485 | 0.0732
293.15 K, c1 = 0.001316 | 0.00808
293.15 K, c1 = 0.002597 | 0.01512
293.15 K, c1 = 0.003846 | 0.0218
293.15 K, c1 = 0.005063 | 0.0282
293.15 K, c1 = 0.00625 | 0.0341
293.15 K, c1 = 0.007407 | 0.0401
293.15 K, c1 = 0.008537 | 0.0455
293.15 K, c1 = 0.009638 | 0.0503
293.15 K, c1 = 0.01071 | 0.0551
293.15 K, c1 = 0.01176 | 0.0597
293.15 K, c1 = 0.01279 | 0.0634
293.15 K, c1 = 0.01379 | 0.0657
293.15 K, c1 = 0.01477 | 0.0675
293.15 K, c1 = 0.01573 | 0.0691
293.15 K, c1 = 0.01667 | 0.0706
293.15 K, c1 = 0.01803 | 0.0726
293.15 K, c1 = 0.01935 | 0.0745
293.15 K, c1 = 0.02063 | 0.0764
293.15 K, c1 = 0.02187 | 0.0781
293.15 K, c1 = 0.02347 | 0.0803
293.15 K, c1 = 0.025 | 0.0825
298.15 K, c1 = 0.001234 | 0.0087
298.15 K, c1 = 0.002439 | 0.01642
298.15 K, c1 = 0.003614 | 0.0236
298.15 K, c1 = 0.004762 | 0.0304
298.15 K, c1 = 0.005882 | 0.0371
298.15 K, c1 = 0.006977 | 0.0435
298.15 K, c1 = 0.008046 | 0.0498
298.15 K, c1 = 0.009091 | 0.0554
298.15 K, c1 = 0.01011 | 0.0612
298.15 K, c1 = 0.01111 | 0.0661
298.15 K, c1 = 0.01209 | 0.0713
298.15 K, c1 = 0.01304 | 0.0744
298.15 K, c1 = 0.01398 | 0.0766
298.15 K, c1 = 0.01489 | 0.0785
298.15 K, c1 = 0.01579 | 0.0801
298.15 K, c1 = 0.0171 | 0.0823
298.15 K, c1 = 0.01837 | 0.0844
298.15 K, c1 = 0.02 | 0.087
298.15 K, c1 = 0.02157 | 0.0895
298.15 K, c1 = 0.02308 | 0.092
298.15 K, c1 = 0.02453 | 0.0944
298.15 K, c1 = 0.02593 | 0.0968
303.15 K, c1 = 0.001316 | 0.00997
303.15 K, c1 = 0.002597 | 0.01874
303.15 K, c1 = 0.003846 | 0.0272
303.15 K, c1 = 0.005063 | 0.0352
303.15 K, c1 = 0.00625 | 0.0427
303.15 K, c1 = 0.007407 | 0.0498
303.15 K, c1 = 0.008537 | 0.0566
303.15 K, c1 = 0.009638 | 0.063
303.15 K, c1 = 0.01071 | 0.0691
303.15 K, c1 = 0.01176 | 0.0748
303.15 K, c1 = 0.01279 | 0.0795

From the NIST ThermoML archive (doi:10.1021/je900916e)
